We go through 20 compounds from patent US20250228239A1, “MOLECULES HAVING PESTICIDAL UTILITY, AND INTERMEDIATES, COMPOSITIONS, AND PROCESSES, RELATED THERETO” (priority 2024, published 2025).

Read-outs that look alike come from different tables or passages of the source.

Assay [1] has as its system Cabbage Looper (Trichoplusia ni, TRIPNI). Kind of assay: Bioassays on Cabbage Looper (CL), 128-well diet tray assay. The class given is in vivo. Particulars: Trichoplusia ni. The gist of the method:
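Test molecule was dissolved in 90:10 acetone-water, applied to artificial diet at 50 μg/cm^2 and allowed to dry. Second-instar larvae were then added, one to five per well, and trays held at 25° C for five to seven days before mortality was scored and averaged.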

Assay [2] concerns Beet Armyworm (Spodoptera exigua, LAPHEG). Kind of assay: Bioassays on Beet Armyworm (BAW), 128-well diet tray assay. The assay is classed as in vivo. Particulars: Spodoptera exigua. The gist of the method: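 Larvae at second instar are exposed on dried, compound-treated diet (50 μg/cm^2, delivered in 90:10 acetone-water) in eight replicate wells. After five to seven days at 25° C., 14:10 light-dark, percent mortality in each well is scored and the eight wells averaged.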

Where [3] appears, read: Table ABC: Biological Results, species CL, read-out: CL.
Where [4] appears, read: Table ABC: Biological Results, species BAW, read-out: BAW.
The mark [5] stands for this setting: Cabbage Looper, Table ABC / ABC-DP rating, read-out: CL rating.
Setting [6] is: Beet Armyworm, Table ABC / ABC-DP rating, read-out: BAW rating.
The mark [7] stands for this setting: Cabbage Looper, rating class, read-out: CL.
Where [8] appears, read: Beet Armyworm, rating class, read-out: BAW.

With `COC(=O)c1c(F)ccc(NC(=O)c2cc(NC(=O)[C@H]3[C@H](c4cc(Cl)cc(Cl)c4)C3(Cl)Cl)ccc2Cl)c1F` (relative stereo) [F1265, trans-Methyl 3-(2-chloro-5-(2,2-dichloro-3-(3,5-dichlorophenyl)cyclopropane-1-carboxamido)benzamido)-2,6-difluorobenzoate], the pest or weed control at 50 µg/cm2 in assay [1] (setting [3]) and in assay [2] (setting [4]) was 50 to 100% throughout.
As to `CN(NC(=O)c1cc(NC(=O)[C@H]2[C@H](c3cc(Cl)cc(Cl)c3)C2(Cl)Cl)ccc1Cl)c1ccccn1` (relative stereo) [F2503, trans-2,2-Dichloro-N-(4-chloro-3-(2-methyl-2-(pyridin-2-yl)hydrazine-1-carbonyl)phenyl)-3-(3,5-dichlorophenyl)cyclopropane-1-carboxamide], the pest or weed control at 50 µg/cm2 in assay [1] (setting [5]) and in assay [2] (setting [6]) was 50 to 100% throughout.
In the case of `Nc1c(F)ccc(NC(=O)c2cc(NC(=O)[C@H]3[C@@H](c4cc(Cl)cc(S(F)(F)(F)(F)F)c4)C3(Cl)Cl)ccc2Cl)c1F` (relative stereo) [F1260, cis-N-(3-Amino-2,4-difluorophenyl)-2-chloro-5-(2,2-dichloro-3-(3-chloro-5-(pentafluoro-λ^6-sulfanyl)phenyl)cyclopropane-1-carboxamido)benzamide], the pest or weed control at 50 µg/cm2 in assay [1] (setting [3]) and in assay [2] (setting [4]) was 50 to 100% in each case.
For the compound `CC(=O)Nc1c(F)ccc(NC(=O)c2cc(NC(=O)[C@H]3[C@H](c4ccc(Cl)c(Cl)c4)C3(Cl)Cl)ccc2Cl)c1F` [F1083, N-(3-acetamido-2,4-difluorophenyl)-2-chloro-5-((1R,3R)-2,2-dichloro-3-(3,4-dichlorophenyl)cyclopropane-1-carboxamido)benzamide], the pest or weed control at 50 µg/cm2 in assay [1] (setting [3]) and in assay [2] (setting [4]) was 50 to 100% in each case.
Consider `O=C(Nc1ccc(F)cc1NC(=O)C(F)(F)F)c1cc(NC(=O)[C@H]2[C@H](c3ccc(Cl)c(Cl)c3)C2(Cl)Cl)ccc1Cl` (relative stereo) [F1121, trans-2-Chloro-5-(2,2-dichloro-3-(3,4-dichlorophenyl)cyclopropane-1-carboxamido)-N-(4-fluoro-2-(2,2,2-trifluoroacetamido)phenyl)benzamide], for which the pest or weed control at 50 µg/cm2 in assay [1] (setting [3]) and in assay [2] (setting [4]) was 50 to 100% each time.
Take `Cc1c(F)c(N)cc(NC(=O)c2cc(NC(=O)[C@H]3[C@H](c4ccc(F)c(C(F)(F)F)c4)C3(Cl)Cl)ccc2Cl)c1F` [F1674, N-(5-Amino-2,4-difluoro-3-methylphenyl)-2-chloro-5-((1R,3R)-2,2-dichloro-3-(4-fluoro-3-(trifluoromethyl)phenyl)cyclopropane-1-carboxamido)benzamide]: the pest or weed control at 50 µg/cm2 in assay [1] (setting [7]) and in assay [2] (setting [8]) was 50 to 100% each time.
With `CC(=O)Nc1c(C)ccc(NC(=O)c2cc(NC(=O)[C@H]3[C@H](c4cc(Cl)cc(Cl)c4)C3(Cl)Cl)ccc2Cl)c1C` (relative stereo) [F1128, trans-N-(3-Acetamido-2,4-dimethylphenyl)-2-chloro-5-(2,2-dichloro-3-(3,5-dichlorophenyl)cyclopropane-1-carboxamido)benzamide], the pest or weed control at 50 µg/cm2 in assay [1] (setting [3]) and in assay [2] (setting [4]) was 50 to 100% in each case.
Turning to `O=C(Nc1ccc(F)cc1)c1cc(NC(=O)[C@H]2[C@H](c3ccc(F)c(Cl)c3)C2(Cl)Cl)cc(F)c1F` (relative stereo) [F1208, trans-5-(2,2-Dichloro-3-(3-chloro-4-fluorophenyl)cyclopropane-1-carboxamido)-2,3-difluoro-N-(4-fluorophenyl)benzamide], the pest or weed control at 50 µg/cm2 in assay [1] (setting [3]) and in assay [2] (setting [4]) was 50 to 100% in each case.
As to `Cc1cc(NCCC(N)=O)ccc1NC(=O)c1cc(NC(=O)[C@H]2[C@H](c3cc(Cl)cc(Cl)c3)C2(Cl)Cl)ccc1Cl` (relative stereo) [F1158, trans-N-(4-((3-Amino-3-oxopropyl)amino)-2-methylphenyl)-2-chloro-5-(2,2-dichloro-3-(3,5-dichlorophenyl)cyclopropane-1-carboxamido)benzamide], the pest or weed control at 50 µg/cm2 in assay [1] (setting [3]) and in assay [2] (setting [4]) was 50 to 100% throughout.
Turning to `C=CCC(=O)Nc1c(F)ccc(NC(=O)c2cc(NC(=O)[C@H]3[C@H](c4ccc(Cl)c(Cl)c4)C3(Cl)Cl)ccc2Cl)c1F` [F1873, N-(3-(But-3-enamido)-2,4-difluorophenyl)-2-chloro-5-((1R,3R)-2,2-dichloro-3-(3,4-dichlorophenyl)cyclopropane-1-carboxamido)benzamide], the pest or weed control at 50 µg/cm2 in assay [1] (setting [5]) and in assay [2] (setting [6]) was 50 to 100% throughout.
Regarding `Cc1ccc(C(=O)Nc2c(F)ccc(NC(=O)c3cc(NC(=O)[C@H]4[C@H](c5ccc(F)c(C(F)(F)F)c5)C4(Cl)Cl)ccc3Cl)c2F)s1` [F1302, N-(3-(2-Chloro-5-((1R,3R)-2,2-dichloro-3-(4-fluoro-3-(trifluoromethyl)phenyl)cyclopropane-1-carboxamido)benzamido)-2,6-difluorophenyl)-5-methylthiophene-2-carboxamide], the pest or weed control at 50 µg/cm2 in assay [1] (setting [3]) and in assay [2] (setting [4]) was 50 to 100% in each case.
`O=C(Nc1ccc(F)c(NC(=O)C(F)(F)C(F)C(F)(F)F)c1F)c1cc(NC(=O)[C@H]2[C@H](c3ccc(F)c(C(F)(F)F)c3)C2(Cl)Cl)ccc1Cl` (stereo partly drawn) [F1839, 2-Chloro-5-((1R,3R)-2,2-dichloro-3-(4-fluoro-3-(trifluoromethyl)phenyl)cyclopropane-1-carboxamido)-N-(2,4-difluoro-3-(2,2,3,4,4,4-hexafluorobutanamido)phenyl)benzamide]: the pest or weed control at 50 µg/cm2 in assay [1] (setting [5]) and in assay [2] (setting [6]) was 50 to 100% each time.
As to `CC(=O)Nc1ccc(F)c(NC(=O)c2cc(NC(=O)[C@H]3[C@H](c4cc(Cl)c(Cl)c(Cl)c4)C3(Cl)Cl)cc(F)c2Cl)c1F` [F1520, N-(3-Acetamido-2,6-difluorophenyl)-2-chloro-5-((1R,3R)-2,2-dichloro-3-(3,4,5-trichlorophenyl)cyclopropane-1-carboxamido)-3-fluorobenzamide], the pest or weed control at 50 µg/cm2 in assay [1] (setting [7]) and in assay [2] (setting [8]) was 50 to 100% in each case.
On to `O=C(COC(F)(F)F)Nc1c(F)ccc(NC(=O)c2cc(NC(=O)[C@H]3[C@H](c4cc(F)cc(C(F)(F)F)c4)C3(Cl)Cl)ccc2Cl)c1F` [F1772, 2-Chloro-5-((1R,3R)-2,2-dichloro-3-(3-fluoro-5-(trifluoromethyl)phenyl)cyclopropane-1-carboxamido)-N-(2,4-difluoro-3-(2-(trifluoromethoxy)acetamido)phenyl)benzamide], for which the pest or weed control at 50 µg/cm2 in assay [1] (setting [5]) and in assay [2] (setting [6]) was 50 to 100% throughout.
`O=C(Nc1ccc(F)c(NC(=O)C(F)F)c1F)c1cc(NC(=O)[C@H]2[C@H](c3ccc(Cl)c(Br)c3)C2(Cl)Cl)ccc1Cl` [F1411, 5-((1R,3R)-3-(3-Bromo-4-chlorophenyl)-2,2-dichlorocyclopropane-1-carboxamido)-2-chloro-N-(3-(2,2-difluoroacetamido)-2,4-difluorophenyl)benzamide]: the pest or weed control at 50 µg/cm2 in assay [1] (setting [7]) and in assay [2] (setting [8]) was 50 to 100% in each case.
With `O=C(COCC(F)(F)F)Nc1c(F)ccc(NC(=O)c2cc(NC(=O)[C@H]3[C@H](c4ccc(F)c(Cl)c4)C3(Cl)Cl)ccc2Cl)c1F` [F1867, 2-Chloro-5-((1R,3R)-2,2-dichloro-3-(3-chloro-4-fluorophenyl)cyclopropane-1-carboxamido)-N-(2,4-difluoro-3-(2-(2,2,2-trifluoroethoxy)acetamido)phenyl) benzamide], the pest or weed control at 50 µg/cm2 in assay [1] (setting [5]) and in assay [2] (setting [6]) was 50 to 100% in each case.
For `O=C(Nc1ccc(F)cc1F)c1cc(NC(=O)[C@H]2[C@@H](c3cc(Cl)c(Cl)c(C(F)(F)F)c3)C2(Cl)Cl)ccc1Cl` (relative stereo) [F1148, cis-2-Chloro-5-(2,2-dichloro-3-(3,4-dichloro-5-(trifluoromethyl)phenyl)cyclopropane-1-carboxamido)-N-(2,4-difluorophenyl)benzamide], the pest or weed control at 50 µg/cm2 in assay [1] (setting [3]) and in assay [2] (setting [4]) was 50 to 100% in each case.
With `O=C(NCC(F)(F)F)c1cc(NC(=O)[C@H]2[C@H](c3ccc(F)c(Cl)c3)C2(Cl)Cl)cc(F)c1F` (relative stereo) [F2049, trans-5-(2,2-Dichloro-3-(3-chloro-4-fluorophenyl)cyclopropane-1-carboxamido)-2,3-difluoro-N-(2,2,2-trifluoroethyl)benzamide], the pest or weed control at 50 µg/cm2 in assay [1] (setting [5]) and in assay [2] (setting [6]) was 50 to 100% in each case.
In the case of `CC(F)(F)CCC(=O)Nc1c(F)ccc(NC(=O)c2cc(NC(=O)[C@H]3[C@H](c4ccc(F)c(Cl)c4)C3(Cl)Cl)ccc2Cl)c1F` [F1864, 2-Chloro-5-((1R,3R)-2,2-dichloro-3-(3-chloro-4-fluorophenyl)cyclopropane-1-carboxamido)-N-(3-(4,4-difluoropentanamido)-2,4-difluorophenyl)benzamide], the pest or weed control at 50 µg/cm2 in assay [1] (setting [5]) and in assay [2] (setting [6]) was 50 to 100% throughout.
Turning to `Nc1c(F)ccc(NC(=O)c2cc(NC(=O)[C@H]3[C@H](c4ccc(Cl)c(Cl)c4)C3(Cl)Cl)cc(F)c2Cl)c1F` [F1284, N-(3-Amino-2,4-difluorophenyl)-2-chloro-5-((1R,3R)-2,2-dichloro-3-(3,4-dichlorophenyl)cyclopropane-1-carboxamido)-3-fluorobenzamide], the pest or weed control at 50 µg/cm2 in assay [1] (setting [3]) and in assay [2] (setting [4]) was 50 to 100% throughout.
